Data published in patent US20200247808A1, “Heterocyclic Tec-Family Kinase Inhibitors” (GB005, Inc., priority 2015, published 2020).
pEC50, pIC50: −log10 of the molar value.

Assays:
[1] = biological target: T1, human ErbB2 (Homo sapiens, UniProt P04626); test: ErbB2 kinase inhibition, KinaseProfiler radiometric protein kinase assay (Eurofins); format: biochemical; conditions: 40 min room temperature
T1 construct: purchased Eurofins Pharma Discovery Services UK Limited (contract assay, KinaseProfiler)
Protocol: In vitro potency of selected compound was defined against human BTK, EGFR, and ErbB2 kinases using Kinase Profiler radiometric protein kinase assays performed at Eurofins Pharma Discovery Services UK Limited.
Each kinase is diluted in buffer and all compounds were prepared to 50x final assay concentration in 100% DMSO. This working stock of the compound was added to the assay well as the first component in the reaction, followed by the remaining components as detailed in the assay protocol listed above. The reaction was initiated by the addition of the MgATP mix. […] (specific activity approx. 500 cpm/pmol, concentration as required) and variable test article concentrations. […] The reaction was stopped by the addition of 3% phosphoric acid solution. 10 μL of the reaction is then spotted onto a P30 filtermat and washed three times for 5 minutes in 75 mM phosphoric acid and once in methanol prior to drying and scintillation counting. […] This abolishes kinase activity and establishes the base-line (0% kinase activity remaining). The potency of each compound was reported by estimating the EC50.

[2] = tested on: splenocytes; test: Splenic cell proliferation assay (anti-IgM stimulated, Cell Titer-Glo); format: cell-based, mouse (CD1); conditions: Splenocyte; mouse splenocytes, 2.5 μg/ml anti-IgM F(ab')2, 72 h; read-out: Spleen cell EC50
Protocol: Proliferation of splenocytes in response to anti-IgM can be blocked by inhibition of BTK. Splenocytes were obtained from 6 week old male CD1 mice (Charles River Laboratories Inc.). Mouse spleens were manually disrupted in PBS and filtered using a 70um cell strainer followed by ammonium chloride red blood cell lysis. Cells were washed, resuspended in Splenocyte Medium (HyClone RPMI supplemented with 10% heat-inactivated FBS, 0.5X non-essential amino acids, 10 mM HEPES, 50 μM beta mercaptoethanol) and incubated at 37° C., 5% CO2 for 2h to remove adherent cells. Suspension cells were seeded in 96 well plates at 50,000 cells per well and incubated at 37° C., 5% CO2 for 1h. Splenocytes were pre-treated in triplicate with 10,000 nM curves of Formula 1 compounds for 1h, followed by stimulation of cell proliferation with 2.5 μg/ml anti-IgM
F(ab′)2 (Jackson ImmunoResearch) for 72 h. Cell proliferation was measured by Cell Titer-Glo Luminescent Assay (Promega). EC50 values (50% proliferation in the presence of compound as compared to vehicle treated controls) were calculated from dose response compound curves using GraphPad Prism Software.

[3] = Formation of glutathione adducts (GSH reactivity, HPLC-UV); format: in vitro ADME; conditions: 10 mM GSH, 20 micromolar test article, pH 7.4, 37° C.
Protocol: Generation of non-specific thiol adducts can be measured by assaying reactivity of compounds with GSH. Formation of GSH adducts was measured by incubating GSH (10 mM) in 100 mM Phosphate Buffer pH 7.4 with test article at 20 micromolar final concentration. Briefly, 600 microliters of phosphate buffer pH 7.4 was added in a glass vial with 200 microliters of 100 micromolar test article in DMSO. Samples were warmed at 37° C. for 10 minutes and the reaction was initiated by the addition of 200 microliters of 50 mM reduced GSH in phosphate buffer pH 7.4 and incubated at 37° C. At various time points (0.5 min, 5 min, 15 min, 30 min, 60 min, 120 min and 180 min) 50 microliter aliquots were placed into an injection vial equipped with an insert and mixed with 50 microliters of 1% formic acid in 99% Methanol. Vials were loaded onto the HPLC injection tray and each sample was injected onto a C18 column (ACE 3 C18, 4.6×50 mm column) and both the parent and product were monitored by UV absorbance at 254 nm on an Agilent Technologies 1100 series HPLC. Peaks were integrated and the percentage of product present calculated as the percent of the total peak area on the parent and product at 60 minutes.

[4] = tested on: immune complex mediated vasculitis; test: Mouse Arthus (immune complex mediated acute vasculitis); format: in vivo, mouse (Balb/c); conditions: mice; for Suppression of immune complex mediated vasculitis: oral gavage 10 mg/kg, 1 h pre-treatment, Evan's blue extravasation at 4 h
Protocol: Formation and reaction to immune complexes is characteristic of antibody mediated autoimmune and inflammatory disease. BTK is important in signaling pathways downstream of Fc receptor stimulation which can be modeled by immune complex mediated acute vasculitis. Mouse studies were conducted as reported in Braselmann S, et al. J Pharmacol Exp Ther, 2006, 319:998-1008.
In summary, female Balb/c mice (6-7 weeks on arrival) were habituated to the animal facility for at least 4 days. On the day of the experiment, animals were pre-treated (t=minus 1 h) with compound or vehicle alone by gavage (PO). At t=0, animals were injected intravenously (IV; 0.1 mL/mouse) with saline containing chicken ovalbumin and Evan's blue (10 mg/mL of each). Ten minutes later (t=10 min), animals were anesthesized with isoflurane, the dorsal surface was shaved and rabbit anti-chicken ovalbumin antibody was then injected intradermally at one site on the right side of the animal (25 μg in 30 μL). The same amount of isotype control antibody was then injected on the left side.
The animals were then returned to their home cage and skin punches (8 mm) were collected from each injection site four hours later. The samples were placed in 1 mL formamide overnight at 80° C. (1 skin biopsy per 1 mL formamide in a glass tube). The amount of Evan's blue in the formamide solution was then assessed by spectrophotometry (630 nm) as a measure of serum extravasation into the dermis.

[5] = biological target: EGFR (Homo sapiens, UniProt P00533); test: Inhibition of cellular EGFR (EGF-stimulated EGFR autophosphorylation in MDA-468 cells); format: cell-based; design: MDA-468 human breast tumor cells which express functional EGFR; endogenous in cells; host or cells: MDA-468 human breast tumor cells; conditions: 1 h pretreatment, 10 ng/mL EGF 5 min, phospho-EGFR/EGFR ratio
Chain of EGFR (P00533 25-1210): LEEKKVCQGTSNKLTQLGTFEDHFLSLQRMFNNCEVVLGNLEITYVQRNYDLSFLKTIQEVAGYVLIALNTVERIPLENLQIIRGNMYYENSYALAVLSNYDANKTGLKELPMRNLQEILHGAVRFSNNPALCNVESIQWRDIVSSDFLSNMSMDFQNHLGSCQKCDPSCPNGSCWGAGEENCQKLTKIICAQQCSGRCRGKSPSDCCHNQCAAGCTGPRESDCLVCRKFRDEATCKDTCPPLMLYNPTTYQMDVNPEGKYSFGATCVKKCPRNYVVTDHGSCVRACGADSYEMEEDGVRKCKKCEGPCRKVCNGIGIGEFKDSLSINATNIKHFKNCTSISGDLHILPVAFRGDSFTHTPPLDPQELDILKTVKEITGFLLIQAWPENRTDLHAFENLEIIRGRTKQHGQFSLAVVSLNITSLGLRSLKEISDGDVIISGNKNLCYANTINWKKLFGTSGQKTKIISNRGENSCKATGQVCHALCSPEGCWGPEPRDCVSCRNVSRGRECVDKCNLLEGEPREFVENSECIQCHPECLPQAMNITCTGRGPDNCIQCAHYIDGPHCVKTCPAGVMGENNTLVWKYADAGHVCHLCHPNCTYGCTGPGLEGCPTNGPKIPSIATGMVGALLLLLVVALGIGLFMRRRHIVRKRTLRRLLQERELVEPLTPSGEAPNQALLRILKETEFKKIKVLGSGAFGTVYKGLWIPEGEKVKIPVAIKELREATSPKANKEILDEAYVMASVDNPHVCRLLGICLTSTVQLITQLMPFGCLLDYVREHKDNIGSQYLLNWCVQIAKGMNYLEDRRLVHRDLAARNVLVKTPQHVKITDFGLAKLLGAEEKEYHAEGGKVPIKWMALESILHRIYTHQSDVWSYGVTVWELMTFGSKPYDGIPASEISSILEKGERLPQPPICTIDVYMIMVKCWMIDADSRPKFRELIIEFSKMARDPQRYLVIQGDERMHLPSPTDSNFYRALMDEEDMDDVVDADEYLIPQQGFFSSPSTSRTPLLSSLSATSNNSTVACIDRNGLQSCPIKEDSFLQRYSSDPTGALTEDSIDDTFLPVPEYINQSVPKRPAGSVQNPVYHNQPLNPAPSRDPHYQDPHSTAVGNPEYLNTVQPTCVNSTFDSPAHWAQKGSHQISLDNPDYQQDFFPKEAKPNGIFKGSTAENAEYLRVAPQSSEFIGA
Protocol: Cells were plated at a densitity of 400 000 cells/well in 6×12-well plates in a final volume of 1 ml/well in DMEM high glucose+10% FBS +1% Pen/Strep and cultured at 37 C and 5% CO2 overnight. The following day the media was replaced with serum free media and the cells were cultured for a further 24 hours.
Cells were pretreated with compound for 1 hour and then stimulated with 10 ng/mL EGF for 5 minutes. Media was removed and cells were lysed in 100 uL/well of RIPA buffer+1% Protease Inhibitor cocktail+1% Phosphatase inhibitor cocktail. Protein concentrations were determined by
BCA assay. 25μ of cellular protein from each cell treatment was separated by SDS-PAGE. Proteins were transferred to nitrocellulose membranes and blocked with TBS-T+5% non-fat milk. EGFR and phospho-EGFR were detected following incubation overnight at 4° C. with Rabbit anti-phospho-EGFR (Tyr1068) (Cell signaling) diluted 1/1000 and Mouse anti-EGFR (1F4) (Cell signaling) diluted 1/1000 in TBS-T+5% nonfat dry milk and then incubation for 1 h at RT with IR Dye 800CW goat anti-rabbit diluted 1/15000 and with IR Dye 680RD goat anti-mouse diluted 1/15000 in TBS-T+5% nonfat dry milk+0.01% SDS. Antibody binding was quatified using a Li-cor Odyssey CLx. Phospho-EGFR/EGFR ratios were calculated for each test condition of control and test article and the EC50 of inhibiton of EGF-stimulated EGFR phosphorylation was calculated.

T1 sequence (P04626 23-1255): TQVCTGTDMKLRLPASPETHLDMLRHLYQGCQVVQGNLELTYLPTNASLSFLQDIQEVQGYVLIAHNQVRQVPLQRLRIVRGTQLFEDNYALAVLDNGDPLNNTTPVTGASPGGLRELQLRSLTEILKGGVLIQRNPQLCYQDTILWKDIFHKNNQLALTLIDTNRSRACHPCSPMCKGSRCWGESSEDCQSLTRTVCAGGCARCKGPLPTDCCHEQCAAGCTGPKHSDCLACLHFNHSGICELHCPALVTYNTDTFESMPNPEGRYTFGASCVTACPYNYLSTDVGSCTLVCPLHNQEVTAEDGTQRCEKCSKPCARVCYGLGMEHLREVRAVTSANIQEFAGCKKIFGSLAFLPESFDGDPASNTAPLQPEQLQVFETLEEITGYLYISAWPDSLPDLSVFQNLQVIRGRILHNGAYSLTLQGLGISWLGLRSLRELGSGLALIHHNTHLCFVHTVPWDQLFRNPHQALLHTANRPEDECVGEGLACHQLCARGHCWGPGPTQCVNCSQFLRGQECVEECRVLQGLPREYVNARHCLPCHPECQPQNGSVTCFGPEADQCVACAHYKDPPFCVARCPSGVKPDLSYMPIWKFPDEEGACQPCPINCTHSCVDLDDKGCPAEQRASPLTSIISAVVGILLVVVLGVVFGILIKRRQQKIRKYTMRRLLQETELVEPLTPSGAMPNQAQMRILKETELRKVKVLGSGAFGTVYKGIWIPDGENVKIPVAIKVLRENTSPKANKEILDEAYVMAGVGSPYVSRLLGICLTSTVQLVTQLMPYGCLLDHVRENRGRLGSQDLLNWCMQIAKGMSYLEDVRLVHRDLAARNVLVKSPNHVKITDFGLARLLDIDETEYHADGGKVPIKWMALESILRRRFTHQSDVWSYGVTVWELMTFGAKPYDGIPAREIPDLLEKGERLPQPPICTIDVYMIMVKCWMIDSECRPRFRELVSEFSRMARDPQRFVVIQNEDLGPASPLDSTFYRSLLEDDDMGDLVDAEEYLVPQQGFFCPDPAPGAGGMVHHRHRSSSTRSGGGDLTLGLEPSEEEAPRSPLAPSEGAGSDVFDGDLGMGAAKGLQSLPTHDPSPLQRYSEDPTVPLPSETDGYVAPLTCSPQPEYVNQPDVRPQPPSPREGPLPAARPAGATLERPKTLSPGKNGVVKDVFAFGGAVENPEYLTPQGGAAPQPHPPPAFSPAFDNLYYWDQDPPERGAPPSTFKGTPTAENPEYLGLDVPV

Q: With C=CC(=O)N[C@H]1C[C@@H](n2nc(-c3ccc(Oc4ccccc4)cc3)c3c(N)ncnc32)C1 [Compound 2] as the compound, how does the pIC50 [1] read?
A: 7.01

Q: And the pEC50 [2]?
A: 9.52

Q: And the “GSH Reactivity GSH Conjugate at 60 minutes” value [3]?
A: 14.2 % of total Peaks

Q: And the “Effect on immune complex-mediated vasculitis (FIG. 3, in words)” value [4]?
A: inhibit immune complex-mediated vasculitis

Q: And the “Suppression of immune complex mediated vasculitis” value [4]?
A: 94%

Q: What about the pEC50 [5] of the same compound?
A: 6.42

Q: With CC#CC(=O)N[C@H]1C[C@@H](n2nc(-c3ccc(Oc4ccccc4)cc3)c3c(N)ncnc32)C1 [Compound 1] as the compound, how does the pIC50 [1] read?
A: < 6.00

Q: And the pEC50 [2]?
A: 9.70

Q: And the “GSH Reactivity GSH Conjugate at 60 minutes” value [3]?
A: 7.3 % of total Peaks

Q: And the “Effect on immune complex-mediated vasculitis (FIG. 3, in words)” value [4]?
A: inhibit immune complex-mediated vasculitis

Q: What about the “Suppression of immune complex mediated vasculitis” value [4] of the same compound?
A: 87%

Q: What about the pEC50 [5] of the same compound?
A: 5.23
